Results on 15 compounds are retold here after patent publication US6608086B2, “Dihydropyridines and new uses thereof” (Synaptic Pharmaceutical Corporation, priority 1993, dated 2003).

SMILES strings stand for the structures. Counter-ions that a name gives are not always drawn. Like-named read-outs stand apart in the source and are kept apart here.

The target of assay [1] is T1, α1B Human Adrenergic Receptor (Homo sapiens, UniProt P35368).
T1 construct: The entire coding region of α1B (1563 bp); expressed in transfected cells
T1 sequence (P35368 1-520): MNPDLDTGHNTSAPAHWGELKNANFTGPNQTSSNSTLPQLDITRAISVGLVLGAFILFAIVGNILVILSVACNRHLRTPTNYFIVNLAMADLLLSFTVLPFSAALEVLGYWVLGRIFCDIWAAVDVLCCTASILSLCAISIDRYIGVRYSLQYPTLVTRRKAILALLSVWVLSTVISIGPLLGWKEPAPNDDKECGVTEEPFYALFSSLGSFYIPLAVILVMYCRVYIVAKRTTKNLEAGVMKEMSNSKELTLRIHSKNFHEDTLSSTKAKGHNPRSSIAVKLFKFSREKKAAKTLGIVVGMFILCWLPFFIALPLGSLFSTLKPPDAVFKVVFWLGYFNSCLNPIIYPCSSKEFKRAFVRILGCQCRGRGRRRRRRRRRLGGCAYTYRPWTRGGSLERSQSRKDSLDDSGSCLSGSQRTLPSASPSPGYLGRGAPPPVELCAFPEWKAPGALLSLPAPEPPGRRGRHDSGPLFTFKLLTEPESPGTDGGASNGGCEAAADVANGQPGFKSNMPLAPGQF
Briefly: Radioligand binding, [3H]prazosin, cloned human α1B adrenergic receptor. The gist of the method:
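[3H]prazosin (0.5 nM) binding was run for 20 min at 37° C in pH 7.5 Tris/MgCl2/ascorbate buffer on membranes of LM(tk−) cells stably expressing the cloned receptor. Filtration through GF/B ended the reaction; 10 μM phentolamine gave nonspecific binding.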

Assay [2] concerns the target T2, α1C Human Adrenergic Receptor (Homo sapiens, UniProt P35348).
T2 construct: The entire coding region of α1C (1401 bp); expressed in transfected cells
T2 sequence (P35348 1-466): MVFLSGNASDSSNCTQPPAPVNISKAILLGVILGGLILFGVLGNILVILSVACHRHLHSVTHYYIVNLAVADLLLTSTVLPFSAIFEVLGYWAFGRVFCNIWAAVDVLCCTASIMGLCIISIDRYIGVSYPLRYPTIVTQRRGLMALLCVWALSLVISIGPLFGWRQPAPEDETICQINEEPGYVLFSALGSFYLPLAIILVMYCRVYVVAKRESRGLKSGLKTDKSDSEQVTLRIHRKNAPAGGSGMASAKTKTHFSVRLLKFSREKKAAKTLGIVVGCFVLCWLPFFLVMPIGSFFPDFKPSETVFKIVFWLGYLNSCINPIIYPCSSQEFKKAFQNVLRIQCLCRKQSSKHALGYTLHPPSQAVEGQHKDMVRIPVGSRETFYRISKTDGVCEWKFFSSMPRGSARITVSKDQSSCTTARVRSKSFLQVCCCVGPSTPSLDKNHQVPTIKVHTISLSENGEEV
Briefly: Radioligand binding, [3H]prazosin, cloned human α1C adrenergic receptor. The gist of the method:
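Antagonist radioligand [3H]prazosin at 0.5 nM labels human α1C receptors in stably transfected LM(tk−) cell membranes over 20 min at 37° C. Phentolamine (10 μM) gives nonspecific binding.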

Another assay concerns the target T3, α2A receptor (Homo sapiens, UniProt P08913).
T3 construct: host or cells: LM(tk-) cells, line L-α2A
T3 sequence (P08913 1-465): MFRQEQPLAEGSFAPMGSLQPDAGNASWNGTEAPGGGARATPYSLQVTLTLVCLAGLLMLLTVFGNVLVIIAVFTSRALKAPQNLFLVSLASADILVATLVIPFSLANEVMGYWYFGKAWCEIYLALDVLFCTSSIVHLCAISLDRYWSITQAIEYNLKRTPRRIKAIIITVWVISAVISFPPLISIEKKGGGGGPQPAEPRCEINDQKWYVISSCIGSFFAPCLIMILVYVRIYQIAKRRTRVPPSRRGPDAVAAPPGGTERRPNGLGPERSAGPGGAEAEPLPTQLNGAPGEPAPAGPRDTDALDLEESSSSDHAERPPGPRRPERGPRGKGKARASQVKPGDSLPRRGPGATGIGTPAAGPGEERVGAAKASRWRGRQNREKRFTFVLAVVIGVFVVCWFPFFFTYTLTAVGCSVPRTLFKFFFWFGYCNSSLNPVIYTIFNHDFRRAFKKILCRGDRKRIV
Briefly: Competition binding, [3H]rauwolscine, human α2A receptor. The gist of the method: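 Filter-bound [3H]rauwolscine (0.5 nM) was measured after equilibrium competition with test antagonists on lysates of LM(tk−) cells stably transfected with each human α2 subtype. Buffer: 25 mM glycylglycine, pH 7.6 at room temperature; 10 μM phentolamine gave nonspecific binding.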

Where [3] appears, read: pKi alpha-1 1b, cloned human α1B receptor, LM(tk−) cell membranes.
Where [4] appears, read: pKi alpha-1 1c, cloned human α1C receptor, LM(tk−) cell membranes.
Where [5] appears, read: [3H]rauwolscine, human α2A receptor, LM(tk−) cells, read-out: pKi alpha-2 2a (converted).
Setting [6] is: pKi alpha-1 1b, cloned human receptor in LM(tk-) cell membranes, SEM and n in lines below.
The mark [7] stands for this setting: cloned human receptor in LM(tk-) cell membranes, SEM and n in lines below, read-out: pKi alpha-1 1c (converted).
Where [8] appears, read: [3H]rauwolscine, LM(tk-) cell line L-α2A, SEM and n in lines below, read-out: pKi alpha-2 2a (converted).
The mark [9] stands for this setting: cloned human receptor in LM(tk-) cell membranes, SEM and n in lines below, read-out: pKi alpha-1 1b (converted).

`COc1ccc(C2(c3ccccc3)CCN(CCCNC(=O)C3=C(C)NC(C)=C(C(N)=O)C3c3ccc([N+](=O)[O-])cc3)CC2)cc1` (stereo not drawn) [Example 98, 5-Carboxamido-1,4-dihydro-3-{N-[3-(4-(4-methoxyphenyl)-4-phenylpiperidin-1-yl)propyl]}carboxamido-2,6-dimethyl-4-(4-nitrophenyl)pyridine hydrochloride]: the Ki in assay [1] (setting [3]) is 302 nM; in assay [2] (setting [4]) it was 4.79 nM; on α2A receptor (setting [5]), 355 nM.

Take `CC1=C(C(N)=O)C(c2ccc(S(C)(=O)=O)cc2)C(C(=O)NCCCN2CCC(c3ccccc3)(c3ccccc3)CC2)=C(C)N1` (stereo not drawn) [Example 115, 5-Carboxamido-1,4-4-dihydro-4-(4-methanesufonylphenyl)-2,6-dimethyl-3-(N-(3-(4,4-diphenylpiperidin-1-yl)propyl)carboxamido)-pyridine]: the Ki in assay [1] (setting [3]) is 1450 nM; in assay [2] (setting [4]) it was 58.9 nM; on α2A receptor (setting [5]), 3980 nM.

As to `CC1=C(C(N)=O)C(c2cccc([N+](=O)[O-])c2)C(C(=O)NCCCN2CCC(c3ccccc3)(c3ccccc3)CC2)=C(C)N1` (stereo not drawn) [Example 61, 5-Carboxamido-1,4-dihydro-2,6-dimethyl-4-(3-nitrophenyl)-3-{N-[3-(4,4-diphenylpiperidin-1-yl)propyl]}carboxamidopyridine], the Ki in assay [1] (setting [6]) is 427 nM; in assay [2] (setting [7]) it was 3.8 nM; at α2A receptor (setting [8]), 759 nM.

`CCC1=C(C(N)=O)C(c2ccc([N+](=O)[O-])cc2)C(C(=O)NCCCN2CCC(C#N)(c3ccccc3)CC2)=C(CC)N1` (single isomer, unassigned; (-)) [(−)-102]: the Ki in assay [1] (setting [3]) was 3160 nM; in assay [2] (setting [4]) it was 112 nM; on α2A receptor (setting [5]), 1910 nM.

With `COC(=O)C1=C(C)NC(C)=C(C(=O)NCCCN2CCC(c3ccccc3)(c3ccccc3)CC2)C1c1ccc(Br)cc1` (stereo not drawn) [Example 15, 4-(4-Bromophenyl)-1,4-dihydro-3-methoxycarbonyl-2,6-dimethyl-5-(N-(3-(4,4-diphenylpiperidin-1-yl)propyl)carboxamido)pyridine], the figures for the Ki (in assay [1] (setting [9]); in assay [2] (setting [7]); on α2A receptor) were 166 nM, 6.31 nM and 2450 nM, respectively.

As to `CCC1=C(C(N)=O)C(c2ccc([N+](=O)[O-])cc2)C(C(=O)NCCCN2CCC(C)(c3ccccc3)CC2)=C(CC)N1` (stereo not drawn) [Example 106, 5-Carboxamido-2,6-diethyl-1,4-dihydro-3-{N-[3-(4-Methyl-4-phenylpiperidin-1-yl)propyl]}carboxamido-4-(4-nitrophenyl)pyridine hydrochloride hydrate], the Ki is 933 nM in assay [1] (setting [3]), 15.1 nM in assay [2] (setting [4]) and 324 nM at α2A receptor (setting [5]).

For `COC(=O)C1=C(C)NC(C)=C(C(=O)NCCN2CCC(c3ccccc3)(c3ccccc3)CC2)C1c1ccc([N+](=O)[O-])cc1` (stereo not drawn) [Example 52, 1,4-Dihydro-3-methoxycarbonyl-2,6-dimethyl-4-(4-nitrophenyl)-5-{N-[2-(4,4-diphenylpiperidin-1-yl)ethyl]}carboxamidopyridine hydrochloride hemihydrate], the results for the Ki (in assay [1] (setting [9]); in assay [2] (setting [7]); at α2A receptor) were 77.6 nM, 8.71 nM and 513 nM, respectively.

In the case of `COc1cccc(C2C(C(N)=O)=C(C)NC(C)=C2C(=O)NCCCN2CCC(c3ccccc3)(c3ccccc3)CC2)c1` (stereo not drawn) [Example 117, 5-Carboxamido-1,4-dihydro-4-(3-Methoxyphenyl)-2,6-dimethyl-3-(N-(3-(4,4-diphenylpiperidin-1-yl)propyl)carboxamido)-pyridine], the Ki in assay [1] (setting [3]) is 562 nM; in assay [2] (setting [4]), 27.5 nM; on α2A receptor (setting [5]) it was 955 nM.

On to `CCC1=C(C(N)=O)C(c2ccc([N+](=O)[O-])cc2)C(C(=O)NCCCN2CCC(O)(c3ccccc3)CC2)=C(CC)N1` (stereo not drawn) [Example 100, 5-Carboxamido-2,6-diethyl-1,4-dihydro-3-{N-(3-(4-hydroxy-4-phenylpiperidin-1-yl)propyl]}carboxamido-4-(4-nitrophenyl)pyridine hydrochloride hydrate], for which the Ki is 1480 nM in assay [1] (setting [3]), 4.37 nM in assay [2] (setting [4]) and 794 nM on α2A receptor (setting [5]).

Regarding `COC(=O)C1=C(C)NC(C)=C(C(=O)NCCCN2CCC(c3ccccc3)(c3ccccc3)CC2)C1c1ccc(C(C)C)cc1` (stereo not drawn) [Example 18, 1,4-Dihydro-4-(4-isopropylphenyl)-3-methoxycarbonyl-2,6-dimethyl-5-(N-(3-(4,4-diphenylpiperidin-1-yl)propyl)carboxamido)pyridine], the values for the Ki (in assay [1] (setting [9]); in assay [2] (setting [7]); at α2A receptor) were 174 nM, 69.2 nM and 2140 nM, respectively.

`COC(=O)C1=C(C)NC(C)=C(C(=O)NCCCN2CCC(c3ccccc3)(c3ccccc3)CC2)C1c1ccc(C)cc1` (stereo not drawn) [Example 19, 1,4-Dihydro-3-methoxycarbonyl-1,6-dimethyl-4-(4-methylphenyl)-5-(N-(3-(4,4-diphenylpiperidin-1-yl)propyl)carboxamido)pyridine]: the Ki in assay [1] (setting [9]) was 269 nM; in assay [2] (setting [7]) it was 1.35 nM; at α2A receptor it was 1290 nM.

Regarding `CC1=C(C(=O)NCCCN2CCC(c3ccccc3)(c3ccccc3)CC2)C(c2ccc([N+](=O)[O-])cc2)C(C(=O)OCCC#N)=C(C)N1` (stereo not drawn) [Example 160], the Ki in assay [1] (setting [3]) is 138 nM; in assay [2] (cloned human α1C receptor, LM(tk−) cell membranes, read-out: pKi alpha-1 1c (converted)), 7.94 nM; at α2A receptor (setting [5]), 457 nM.

On to `CCC1=C(C(N)=O)C(c2ccc(S(C)(=O)=O)cc2)C(C(=O)NCCCN2CCC(c3ccccc3)(c3ccccc3)CC2)=C(C)N1` (stereo not drawn) [Example 118, 3-Carboxamido-2-ethyl-1,4-dihydro-4-(4-methanesulfonylphenyl)-6-methyl-3-(N-(3-(4,4-diphenylpiperidin-1-yl)propyl)carboxyamido)-pyridine], for which the values for the Ki (in assay [1] (setting [3]); in assay [2] (setting [4]); at α2A receptor (setting [5])) were 1780 nM, 9.55 nM and 3890 nM, respectively.

Consider `COC(=O)C1=C(C)NC(C)=C(C(=O)NCCCN2CCC(c3ccccc3)(c3ccccc3)CC2)C1c1ccc(OC)cc1` (stereo not drawn) [Example 21, 1,4-Dihydro-3-methoxycarbonyl-4-(4-Methoxyphenyl)-2,6-dimethyl-5-(N-(3-(4,4-diphenylpiperidin-1-yl)propyl)carboxamido)pyridine], for which the Ki in assay [1] (setting [9]) is 204 nM; in assay [2] (setting [7]), 7.08 nM; on α2A receptor, 2090 nM.

On to `COC(=O)C1=C(C)NC(C)=C(C(=O)NCCCN2CCC(c3ccccc3)(c3ccccc3)CC2)C1c1ccc([N+](=O)[O-])c(OC)c1` (stereo not drawn) [Example 29, 1,4-Dihydro-3-methoxycarbonyl-4-(3-methoxy-4-nitrophenyl)-2,6-dimethyl-5-(N-(3-(4,4-diphenylpiperidin-1-yl)propyl)carboxamido)pyridine], for which the values for the Ki (in assay [1] (setting [6]); in assay [2] (setting [7]); on α2A receptor (setting [8])) were 141 nM, 1.48 nM and 692 nM, respectively.
